According to article PMC9865890, “N-Derivatives of (Z)-Methyl 3-(4-Oxo-2-thioxothiazolidin-5-ylidene)methyl)-1H-indole-2-carboxylates as Antimicrobial Agents—In Silico and In Vitro Evaluation” (Pharmaceuticals, 2023):
Values after ≈ are worked out from the molar mass of the structure shown. Where two headings read alike, the source gives them in different places.

Experiments:
[1] = test system: Penicillium verrucosum var. cyclopium (food isolate); test: Antifungal bioassay (MIC/MFC); type: cell-based
Description: For the antifungal bioassays, six fungi were used: Aspergillus niger (ATCC 6275), Aspergillus fumigatus (ATCC 1022), Aspergillus versicolor (ATCC 11730), Penicillium funiculosum (ATCC 36839), Trichoderma viride (IAM 5061), and Penicillium verrucosum var. cyclopium (food isolate). The organisms were obtained from the Mycological Laboratory, Department of Plant Physiology, Institute for Biological Research “Siniša Stankovic”, Belgrade, Serbia. All experiments were performed in duplicate.

[2] = test system: Aspergillus versicolor (ATCC 11730); test: Antifungal bioassay (MIC/MFC); type: cell-based; settings: ATCC11730, A.v. (A. versicolor)
Description: (§1) For the antifungal bioassays, six fungi were used: […] The organisms were obtained from the Mycological Laboratory, Department of Plant Physiology, Institute for Biological Research “Siniša Stankovic”, Belgrade, Serbia. All experiments were performed in duplicate.

[3] = test system: Penicillium funiculosum (ATCC 36839); test: Antifungal bioassay (MIC/MFC); type: cell-based; settings: Talaromyces funiculosus, ATCC36839; P.f. (P. funiculosum)
Description: as §1

[4] = test system: Trichoderma viride (IAM 5061); test: Antifungal bioassay (MIC/MFC); type: cell-based; settings: T.v. (T. viride)
Description: as §1

[5] = test system: Aspergillus fumigatus (ATCC 1022); test: Antifungal bioassay (MIC/MFC); type: cell-based; settings: ATCC1022, A.f. (A. fumigatus)
Description: as §1

[6] = test system: A. ochraceus; test: Antifungal bioassay (MIC/MFC); type: cell-based; settings: A.o. (A. ochraceus)
Description: as §1

[7] = test system: P. ochrochloron; test: Antifungal bioassay (MIC/MFC); type: cell-based; settings: for MIC: P.o. (P. ochrochloron; text: P. ochramensis); for MFC: P.o. (P. ochrochloron)
Description: as §1

[8] = test system: Aspergillus niger (ATCC 6275); test: Antifungal bioassay (MIC/MFC); type: cell-based; settings: ATCC6275, A.n. (A. niger)
Description: as §1

[9] = test system: P. aeruginosa; test: Antibacterial microdilution (MIC/MBC); type: cell-based; settings: Pseudomonas aeruginosa, P.a. (P. aeruginosa); for MIC: read-out: MIC
Description: (§2) The synthesized compounds (Table 1) were evaluated for their antibacterial activity against a panel of eight species using a microdilution method with ampicillin and streptomycin as reference drugs. […] The order of activity can be presented as: 8 > 11 > 2 > 1 > 12 > 3 > 17 > 7 > 5 > 13 > 14 > 16 > 9 > 4 = 6 > 15 > 10. […] Cloacae. […] The most sensitive bacteria appeared to be En. cloacae, while E. coli was the most resistant one, followed by M. flavus.
(§3) The following Gram-negative bacteria: Escherichia coli (ATCC 35210), Enterobacter cloacae (clinical isolate), Salmonella typhimurium (ATCC 13311), as well as Gram-positive bacteria: Listeria monocytogenes (NCTC 7973), Bacillus cereus (clinical isolate), and Staphylococcus aureus (ATCC 6538) were used. The organisms were obtained from the Mycological Laboratory, Department of Plant Physiology, Institute for Biological Research “Siniša Stankovic”, Belgrade, Serbia. The minimum inhibitory (MIC) and minimum bactericidal (MBC) concentrations were determined by the modified microdilution method, as previously reported.

[10] = test system: M. flavus; test: Antibacterial microdilution (MIC/MBC); type: cell-based; settings: Micrococcus flavus; M.f. (M. flavus)
Description: as §2, §3

[11] = test system: Enterobacter cloacae (clinical isolate); test: Antibacterial microdilution (MIC/MBC); type: cell-based; settings: Enterobacter cloacae, En.cl (En. cloacae); for MIC: read-out: MIC
Description: as §2, §3

[12] = test system: Escherichia coli (ATCC 35210); test: Antibacterial microdilution (MIC/MBC); type: cell-based; settings: Escherichia coli, ATCC35210, E. coli; for MIC: read-out: MIC
Description: as §2, §3

[13] = test system: Bacillus cereus (clinical isolate); test: Antibacterial microdilution (MIC/MBC); type: cell-based; settings: Bacillus cereus, B.c. (B. cereus); for MIC: read-out: MIC
Description: as §2, §3

[14] = test system: Salmonella typhimurium (ATCC 13311); test: Antibacterial microdilution (MIC/MBC); type: cell-based; settings: Salmonella enterica, S.t. (S. typhimurium); for MIC: read-out: MIC
Description: as §2, §3

[15] = test system: Staphylococcus aureus (ATCC 6538); test: Antibacterial microdilution (MIC/MBC); type: cell-based; settings: Staphylococcus aureus, ATCC6538, S.a. (S. aureus); for MIC: read-out: MIC
Description: as §2, §3

[16] = test system: Listeria monocytogenes (NCTC 7973); test: Antibacterial microdilution (MIC/MBC); type: cell-based; settings: Listeria monocytogenes, NCTC7973, L.m. (L. monocytogenes); for MIC: read-out: MIC
Description: as §2, §3

[17] = Trichoderma viride, IAM5061, read-out: MIC
[18] = Aspergillus ochraceus, read-out: MIC
[19] = Penicillium ochrochloron, read-out: MIC

Compound | melting point [°C] | MFC [1] [µg/mL] | MIC [1] [µg/mL] | MFC [2] [µg/mL] | MIC [2] [µg/mL] | MFC [3] [µg/mL] | MIC [3] [µg/mL] | MIC [4] [µg/mL] | MFC ([4]; Trichoderma viride, IAM5061) [µg/mL] | MIC [4, 17] [µg/mL] | MFC [5] [µg/mL] | MIC [5] [µg/mL] | MFC ([6]; Aspergillus ochraceus) [µg/mL] | MIC [6, 18] [µg/mL] | MFC ([7]; Penicillium ochrochloron) [µg/mL] | MIC [7, 19] [µg/mL] | MFC [8] [µg/mL] | MIC [8] [µg/mL] | MBC [9] [µg/mL] | MIC [9] [µg/mL] | other results
COC(=O)c1[nH]c2ccc(F)cc2c1/C=C1\SC(=S)N(c2ccc(O)cc2)C1=O [Compound 10, (Z)-methyl 5-fluoro-3-((3-(4-hydroxyphenyl)-4-oxo-2-thioxothiazolidin-5-ylidene)methyl)-1H-indole-2-carboxylate] | 267 to 268 | 30 ± 10 (≈ 70 µM) | 15 ± 3 (≈ 35 µM) | 15 ± 3 (≈ 35 µM) | 8 ± 0.6 (≈ 18.7 µM) | 15 ± 3 (≈ 35 µM) | 8 ± 0.6 (≈ 18.7 µM) | 4 ± 1 (≈ 9.34 µM) | 8 ± 0.6 (≈ 18.7 µM) | 4 (≈ 9.34 µM) | 120 ± 40 (≈ 280 µM) | 60 ± 6 (≈ 140 µM) | 8 ± 0.6 (≈ 18.7 µM) | 4 (≈ 9.34 µM) | 15 ± 3 (≈ 35 µM) | 8 (≈ 18.7 µM) | 15 ± 3 (≈ 35 µM) | 8 ± 0.6 (≈ 18.7 µM) | 60 ± 6 (≈ 140 µM) | 30 ± 10 (≈ 70 µM) | MIC [6]: 4 ± 1 µg/mL (≈ 9.34 µM); MIC [7]: 8 ± 0.6 µg/mL (≈ 18.7 µM); MBC [10]: 60 ± 6 µg/mL (≈ 140 µM); MIC [10]: 45 ± 3 µg/mL (≈ 105 µM); MBC [11]: 60 ± 6 µg/mL (≈ 140 µM); MIC [11]: 30 ± 10 µg/mL (≈ 70 µM); MBC [12]: 60 ± 6 µg/mL (≈ 140 µM); MIC [12]: 30 ± 10 µg/mL (≈ 70 µM); MBC [13]: 60 ± 6 µg/mL (≈ 140 µM); MIC [13]: 30 ± 10 µg/mL (≈ 70 µM); MBC [14]: 60 ± 6 µg/mL (≈ 140 µM); MIC [14]: 45 ± 3 µg/mL (≈ 105 µM); MBC [15]: 60 ± 6 µg/mL (≈ 140 µM); MIC [15]: 30 ± 10 µg/mL (≈ 70 µM); MBC [16]: 60 ± 6 µg/mL (≈ 140 µM); MIC [16]: 30 ± 10 µg/mL (≈ 70 µM)
COC(=O)c1[nH]c2ccccc2c1/C=C1\SC(=S)N(c2ccc(O)cc2)C1=O [Compound 4, (Z)-methyl 3-((3-(4-hydroxyphenyl)-4-oxo-2-thioxothiazolidin-5-ylidene)methyl)-1H-indole-2-carboxylate] | 282 to 284 | 60 ± 6 (≈ 146 µM) | 30 ± 10 (≈ 73.1 µM) | 15 ± 3 (≈ 36.5 µM) | 8 ± 0.6 (≈ 19.5 µM) | 30 ± 10 (≈ 73.1 µM) | 15 ± 3 (≈ 36.5 µM) | 8 ± 0.6 (≈ 19.5 µM) | 15 ± 3 (≈ 36.5 µM) | 8 (≈ 19.5 µM) | 120 ± 40 (≈ 292 µM) | 60 ± 6 (≈ 146 µM) | 15 ± 3 (≈ 36.5 µM) | 8 ± 0.6 (≈ 19.5 µM) | 30 ± 10 (≈ 73.1 µM) | 15 ± 3 (≈ 36.5 µM) | 30 ± 10 (≈ 73.1 µM) | 15 ± 3 (≈ 36.5 µM) | 60 ± 6 (≈ 146 µM) | 30 ± 10 (≈ 73.1 µM) | MBC [10]: 60 ± 6 µg/mL (≈ 146 µM); MIC [10]: 45 ± 3 µg/mL (≈ 110 µM); MBC [11]: 30 ± 10 µg/mL (≈ 73.1 µM); MIC [11]: 15 ± 9 µg/mL (≈ 36.5 µM); MBC [12]: 60 ± 6 µg/mL (≈ 146 µM); MIC [12]: 45 ± 3 µg/mL (≈ 110 µM); MBC [13]: 60 ± 6 µg/mL (≈ 146 µM); MIC [13]: 30 ± 10 µg/mL (≈ 73.1 µM); MBC [14]: 60 ± 6 µg/mL (≈ 146 µM); MIC [14]: 45 ± 3 µg/mL (≈ 110 µM); MBC [15]: 60 ± 6 µg/mL (≈ 146 µM); MIC [15]: 30 ± 10 µg/mL (≈ 73.1 µM); MBC [16]: 60 ± 6 µg/mL (≈ 146 µM); MIC [16]: 45 ± 1 µg/mL (≈ 110 µM)
